Target: T1, SHP2 protein (Homo sapiens, UniProt Q06124)
T1 sequence (Q06124 1-593): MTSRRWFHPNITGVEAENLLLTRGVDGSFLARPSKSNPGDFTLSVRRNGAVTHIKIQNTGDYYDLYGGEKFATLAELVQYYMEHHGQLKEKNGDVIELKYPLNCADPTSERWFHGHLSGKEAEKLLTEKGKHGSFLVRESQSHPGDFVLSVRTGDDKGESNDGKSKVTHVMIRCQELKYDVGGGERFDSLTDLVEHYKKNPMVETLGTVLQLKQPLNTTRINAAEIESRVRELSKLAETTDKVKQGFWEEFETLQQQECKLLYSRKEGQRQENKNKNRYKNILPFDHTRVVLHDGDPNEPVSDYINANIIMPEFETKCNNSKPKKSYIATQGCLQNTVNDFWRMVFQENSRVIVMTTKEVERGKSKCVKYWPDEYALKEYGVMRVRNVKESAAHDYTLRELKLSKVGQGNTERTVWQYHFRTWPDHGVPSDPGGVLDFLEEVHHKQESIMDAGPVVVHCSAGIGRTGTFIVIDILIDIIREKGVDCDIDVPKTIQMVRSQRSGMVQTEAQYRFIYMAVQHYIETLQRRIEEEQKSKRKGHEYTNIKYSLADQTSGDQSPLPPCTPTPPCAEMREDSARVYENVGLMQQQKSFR
Experiment: Measurement of SHP2 protein degradation in NCI-H358 cells (western blotting)
Type: cell-based
Parameters: endogenous in cells; host or cells: NCI-H358
Settings: harvested after 24 hours
Protocol: H358 cells were treated with the synthesized Example compounds, and the amount of SHP2 protein present in the cells was measured using western blotting detection. The protocol for the experiment using H358 cells is as follows.
[Culture]H358 cells were resuspended in RPMI1640 with 25 mM HEPES (Hyclone, SH30255.01), 10% FBS (Hyclone, SV30207.02), 1% Penicillin-streptomycin (Welgene, LS 202-02) media, seeded at 3×10^5/mL in 12-well plates (1 mL each), and cultured for 24 hours.
[Compound treatment] Before compound treatment, the media was changed to 1 mL media, and then the 12-well plate was treated as follows. The 10 mM stock dissolved in DMSO was serially diluted 1/100 or 1/10 with the media, and the compound was treated to the cells at a final concentration of 0.001, 0.01, and 0.1 μM, and harvested after 24 hours. For the negative control group, DMSO diluted 1/1000 in the media was added (1 μL DMSO+999 μL media).
[Harvest]24 hours after compound treatment, each well was scraped with a cell lifter (SPL, 90040), pipetted with a 1 mL pipette, collected in a 1.5 mL microtube, and centrifuged (500 g, 5 min, 4° C.). The supernatant was removed, washed with PBS, and centrifuged again (500 g, 5 min, 4° C.). Afterwards, the supernatant was removed to prepare a pellet.
[Cell lysis and sample preparation] Lysis buffer was prepared as follows. RIPA buffer (Biosesang, RC2038-050-00)+0.5 mM PMSF (SIGMA, P7626)+1× Protease/Phosphatase Inhibitor (Cell signaling, 5872S) were added at 30 μL per tube, vortexed, and incubated on ice for 30 minutes. Afterwards, sonication was performed (10 sec pulse, 30 sec rest, 5 cycles, 70% amplification) and centrifugation was performed (15,000 g, 15 min, 4° C.), and only the supernatant was transferred to a microtube. A 96-well plate was diluted to 1/4 with 7.5 μL of RIPA buffer and 2.5 μL of sample, and 200 μL each was added after mixing A and B of the BCA Protein Assay Kit (iNtRON, 21071) in a ratio of 50:1. The plate was incubated at 37° C. for 30 minutes and left at room temperature for 10 minutes. After shaking for 10 seconds with a SYNERGY H1 microplate reader from BioTek, the absorbance was measured at 562 nm. The protein was quantified using the measured value to make a sample, which was then incubated at 70° C. for 10 minutes. The sample buffer used here was a mixture of NuPAGE or Bolt 4× sample buffer (Invitrogen) and each 10× sample reducing agent depending on the gel to be used, and RIPA buffer was used for protein dilution.
[Western blotting detection] Equal amounts of samples were loaded onto NuPAGE or Bolt Bis-tris 4-12% gradient gel and run (200 V, 35 min). This was transferred to […] NC membrane using Trans-blot Turbo (BIO-RAD) (1.3 A constant, 25 V limit, 15 min), and blocked with 5% skim milk/0.2% TBST for 45 min at room temperature. Anti-SHPTP2 Mouse (1:1,000 in 5% skim milk/0.2% TBST, size: 70 kDa, Santa cruz sc-7384) and Anti-GAPDH Rabbit (1:2,000 in 5% skim milk or 5% BSA/0.2% TBST, size: 37 kDa, CST #2118) were added and incubated overnight at 4° C. After washing three times with 0.2% TBST washing buffer for 5 minutes each, secondary antibodies Anti-Mouse IgG (1:5,000 in 5% skim milk/0.2% TBST, CST) and IRDye® 680RD Goat anti-Rabbit IgG Secondary Antibody (1:10,000 in 5% skim milk/0.2% TBST, LI-COR 926-68071) were added, and incubated on a rocker at room temperature for 45 minutes. The resultants were washed five times with 0.2% TBST washing buffer for 5 minutes each, and detected using LI-COR's Odyssey. GAPDH was detected with a 700 nm channel, and SHPTP2 was detected using SuperSignal West Pico PLUS Chemiluminescent Substrate.

| SHP2% degradation (0.01 μM) | SHP2% degradation (0.1 μM) | Structure (SMILES) |
| --- | --- | --- |
| 93.5% | 99.6% | Cc1ncsc1-c1ccc(CNC(=O)[C@@H]2C[C@@H](O)CN2C(=O)[C@@H](NC(=O)C2(F)CC2)C(C)(C)C)c(O[C@H]2CC[C@H](C(=O)N3CC(Nc4cccc(Sc5cnc(N6CCC7(CC6)Cc6ncccc6[C@H]7N)cn5)c4Cl)C3)CC2)c1 [Example 15, (2S,4R)—N-(2-(((1R,4S)-4-(3-((3-((5-((S)-5-amino-5,7-dihydrospiro[cyclopenta[b]pyridine-6,4′-piperidin]-1′-yl)pyrazin-2-yl)thio)-2-chlorophenyl)amino)azetidine-1-carbonyl)cyclohexyl)oxy)-4-(4-methylthiazol-5-yl)benzyl)-1-((S)-2-(1-fluorocyclopropane-1-carboxamido)-3,3-dimethylbutanoyl)-4-hydroxypyrrolidine-2-carboxamide] |
| 99.9% | 99.7% | Cc1ncsc1-c1ccc(CNC(=O)[C@@H]2C[C@@H](O)CN2C(=O)[C@H](C(C)C)n2cc(C3CC3)nn2)c(OC2CCN(C(=O)C3CCN(c4nccc(Sc5cnc(N6CCC7(CC6)CO[C@@H](C)[C@H]7N)cn5)c4Cl)CC3)CC2)c1 [Example 103, (2S,4R)—N-(2-((1-(1-(4-((5-((3S,4S)-4-amino-3-methyl-2-oxa-8-azaspiro[4.5]decan-8-yl)pyrazin-2-yl)thio)-3-chloropyridin-2-yl)piperidine-4-carbonyl)piperidin-4-yl)oxy)-4-(4-methylthiazol-5-yl)benzyl)-1-((S)-2-(4-cyclopropyl-1H-1,2,3-triazol-1-yl)-3-methylbutanoyl)-4-hydroxypyrrolidine-2-carboxamide] |
| −36.9% | 73.0% | CC(=O)N[C@H](C(=O)N1C[C@H](O)C[C@H]1C(=O)NCc1ccc(-c2scnc2C)cc1O[C@H]1CC[C@H](C(=O)N2CC(N3CCOc4c(Sc5cnc(N6CCC(C)(CN)CC6)cn5)cccc43)C2)CC1)C(C)(C)C [Example 34, (2S,4R)-1-((S)-2-acetamido-3,3-dimethylbutanoyl)-N-(2-(((1R,4S)-4-(3-(8-((5-(4-(aminomethyl)-4-methylpiperidin-1-yl)pyrazin-2-yl)thio)-2,3-dihydro-4H-benzo[b][1,4]oxazin-4-yl)azetidine-1-carbonyl)cyclohexyl)oxy)-4-(4-methylthiazol-5-yl)benzyl)-4-hydroxypyrrolidine-2-carboxamide] |
| 99.8% | 99.8% | Cc1cn([C@H](C(=O)N2C[C@H](O)C[C@H]2C(=O)NCc2ccc(-c3scnc3C)cc2OC2CCN(C(=O)C3CCN(c4nccc(Sc5cnc(N6CCC7(CC6)CO[C@@H](C)[C@H]7N)c(CO)n5)c4Cl)CC3)CC2)C(C)C)nn1 [Example 110, (2S,4R)—N-(2-((1-(1-(4-((5-((3S,4S)-4-amino-3-methyl-2-oxa-8-azaspiro[4.5]decan-8-yl)-6-(hydroxymethyl)pyrazin-2-yl)thio)-3-chloropyridin-2-yl)piperidine-4-carbonyl)piperidin-4-yl)oxy)-4-(4-methylthiazol-5-yl)benzyl)-4-hydroxy-1-((S)-3-methyl-2-(4-methyl-1H-1,2,3-triazol-1-yl)butanoyl)pyrrolidine-2-carboxamide] |
| 97.0% | 99.4% | CC(=O)N[C@H](C(=O)N1C[C@H](O)C[C@H]1C(=O)NCc1ccc(-c2scnc2C)cc1O[C@H]1CC[C@H](C(=O)N2CCC(Nc3nccc(Sc4cnc(N5CCC(C)(CN)CC5)c(CO)n4)c3Cl)CC2)CC1)C(C)(C)C [Example 45, (2S,4R)-1-((S)-2-acetamido-3,3-dimethylbutanoyl)-N-(2-(((1r,4S)-4-(4-((4-((5-(4-(aminomethyl)-4-methylpiperidin-1-yl)-6-(hydroxymethyl)pyrazin-2-yl)thio)-3-chloropyridin-2-yl)amino)piperidine-1-carbonyl)cyclohexyl)oxy)-4-(4-methylthiazol-5-yl)benzyl)-4-hydroxypyrrolidine-2-carboxamide] |
| −65.7% | −18.7% | Cc1cnn(C(C(=O)N2C[C@H](O)C[C@H]2C(=O)NCc2ccc(-c3scnc3C)cc2OC2CCN(C(=O)C3CCN(c4nccc(Sc5cnc(N6CCC(C)(CN)CC6)cn5)c4Cl)CC3)CC2)C(C)C)c1 (stereo partly drawn) [Example 100, (2S,4R)—N-(2-((1-(1-(4-((5-(4-(aminomethyl)-4-methylpiperidin-1-yl)pyrazin-2-yl)thio)-3-chloropyridin-2-yl)piperidine-4-carbonyl)piperidin-4-yl)oxy)-4-(4-methylthiazol-5-yl)benzyl)-4-hydroxy-1-(3-methyl-2-(4-methyl-1H-pyrazol-1-yl)butanoyl)pyrrolidine-2-carboxamide] |
| 33.8% | 93.2% | CC(=O)N[C@H](C(=O)N1C[C@H](O)C[C@H]1C(=O)NCc1ccc(-c2scnc2C)cc1O[C@H]1CC[C@H](C(=O)N2CCC(c3cccc(Sc4cnc(N5CCC(C)(CN)CC5)cn4)c3Cl)CC2)CC1)C(C)(C)C [Example 46, (2S,4R)-1-((S)-2-acetamido-3,3-dimethylbutanoyl)-N-(2-(((1r,4S)-4-(4-(3-((5-(4-(aminomethyl)-4-methylpiperidin-1-yl)pyrazin-2-yl)thio)-2-chlorophenyl)piperidine-1-carbonyl)cyclohexyl)oxy)-4-(4-methylthiazol-5-yl)benzyl)-4-hydroxypyrrolidine-2-carboxamide] |
| 99.1% | 97.3% | Cc1ncsc1-c1ccc(CNC(=O)[C@@H]2C[C@@H](O)CN2C(=O)[C@H](C(C)C)n2cc(C3CC3)nn2)c(OC2CCN(C(=O)C3CCN(c4nccc(Sc5cnc(N6CCC7(CC6)CO[C@@H](C)[C@H]7N)c(CO)n5)c4Cl)CC3)CC2)c1 [Example 106, (2S,4R)—N-(2-((1-(1-(4-((5-((3S,4S)-4-amino-3-methyl-2-oxa-8-azaspiro[4.5]decan-8-yl)-6-(hydroxymethyl)pyrazin-2-yl)thio)-3-chloropyridin-2-yl)piperidine-4-carbonyl)piperidin-4-yl)oxy)-4-(4-methylthiazol-5-yl)benzyl)-1-((S)-2-(4-cyclopropyl-1H-1,2,3-triazol-1-yl)-3-methylbutanoyl)-4-hydroxypyrrolidine-2-carboxamide] |
